Measured values from the NIST ThermoML archive (doi:10.1016/j.jct.2010.06.011).
± gives the expanded uncertainty stated by the source.

Experiment: xn = mol fraction of the nth substance listed
Settings: Liquid, Vibrating tube method

COC(=O)OC [dimethyl carbonate] + CCCCCC
mass density [kg/m3]
Settings | 100 kPa | 5000 kPa | 10000 kPa | 20000 kPa | 30000 kPa | 40000 kPa
303.15 K, x1 = 0.1 | – | – | – | 695.6 ± 0.4 | 704.3 ± 0.5 | 712.2 ± 0.6
303.15 K, x1 = 0.2 | – | – | – | 723.3 ± 0.4 | 732.2 ± 0.5 | 740.2 ± 0.6
303.15 K, x1 = 0.3 | – | – | – | 753.7 ± 0.4 | 762.7 ± 0.5 | 770.9 ± 0.5
303.15 K, x1 = 0.4 | – | – | – | 787.2 ± 0.4 | 796.3 ± 0.4 | 804.6 ± 0.5
303.15 K, x1 = 0.5 | – | – | – | 824.1 ± 0.4 | 833.3 ± 0.4 | 841.6 ± 0.5
303.15 K, x1 = 0.6 | – | – | – | 865 ± 0.4 | 874.1 ± 0.4 | 882.3 ± 0.4
303.15 K, x1 = 0.7 | – | – | – | 909.8 ± 0.3 | 918.7 ± 0.3 | 926.9 ± 0.3
303.15 K, x1 = 0.8 | – | – | – | 959.7 ± 0.3 | 968.5 ± 0.3 | 976.5 ± 0.3
303.15 K, x1 = 0.9 | – | – | – | 1015.1 ± 0.3 | 1023.6 ± 0.3 | 1031.4 ± 0.3
303.15 K, x1 = 0.95 | – | – | – | 1044.2 ± 0.3 | 1052.6 ± 0.3 | 1060.2 ± 0.3
303.15 K, x1 = 1 | – | – | – | 1074.7 ± 0.3 | 1082.9 ± 0.3 | 1090.4 ± 0.4
308.15 K, x1 = 0.1 | 669.8 ± 0.3 | 675.7 ± 0.3 | 681.4 ± 0.4 | 691.5 ± 0.4 | 700.6 ± 0.5 | 708.6 ± 0.6
308.15 K, x1 = 0.2 | 696.9 ± 0.3 | 703 ± 1.3 | 708.7 ± 0.4 | 719 ± 0.4 | 728.3 ± 0.5 | 736.4 ± 0.6
308.15 K, x1 = 0.3 | 727 ± 0.3 | 733.1 ± 0.8 | 738.8 ± 0.4 | 749.3 ± 0.4 | 758.7 ± 0.5 | 766.9 ± 0.5
308.15 K, x1 = 0.4 | 760.2 ± 0.3 | 766.3 ± 0.5 | 772 ± 0.3 | 782.6 ± 0.4 | 792.1 ± 0.4 | 800.4 ± 0.5
308.15 K, x1 = 0.5 | 796.9 ± 0.3 | 802.9 ± 0.4 | 808.7 ± 0.4 | 819.2 ± 0.4 | 828.8 ± 0.4 | 837.2 ± 0.5
308.15 K, x1 = 0.6 | 837.4 ± 0.3 | 843.8 ± 0.3 | 849.5 ± 0.3 | 859.9 ± 0.4 | 869.4 ± 0.4 | 877.7 ± 0.4
308.15 K, x1 = 0.7 | 882.5 ± 0.3 | 888.6 ± 1.5 | 894.2 ± 0.3 | 904.4 ± 0.3 | 913.8 ± 0.3 | 922.1 ± 0.3
308.15 K, x1 = 0.8 | 932.8 ± 0.3 | 938.7 ± 0.4 | 944.1 ± 0.3 | 954.1 ± 0.3 | 963.2 ± 0.3 | 971.5 ± 0.3
308.15 K, x1 = 0.9 | 989.2 ± 0.3 | 994.6 ± 0.3 | 999.7 ± 0.3 | 1009.3 ± 0.3 | 1018.1 ± 0.3 | 1026.1 ± 0.3
308.15 K, x1 = 0.95 | 1018.8 ± 0.3 | 1023.8 ± 0.3 | 1028.8 ± 0.3 | 1038.1 ± 0.3 | 1046.8 ± 0.3 | 1054.7 ± 0.3
308.15 K, x1 = 1 | 1049.8 ± 0.3 | 1054.6 ± 0.3 | 1059.4 ± 0.3 | 1068.5 ± 0.3 | 1077 ± 0.3 | 1084.8 ± 0.3
313.15 K, x1 = 0.1 | 664.8 ± 0.3 | 671.1 ± 0.3 | 677 ± 0.3 | 687.5 ± 0.4 | 696.7 ± 0.5 | 705 ± 0.6
313.15 K, x1 = 0.2 | 691.7 ± 0.3 | 698 ± 0.9 | 704.1 ± 0.3 | 714.7 ± 0.4 | 724.2 ± 0.5 | 732.6 ± 0.6
313.15 K, x1 = 0.3 | 721.5 ± 0.3 | 727.8 ± 2.5 | 733.9 ± 0.4 | 744.7 ± 0.4 | 754.3 ± 0.5 | 762.9 ± 0.5
313.15 K, x1 = 0.4 | 754.5 ± 0.3 | 760.9 ± 0.7 | 767 ± 0.3 | 777.9 ± 0.4 | 787.5 ± 0.4 | 796.3 ± 0.5
313.15 K, x1 = 0.5 | 791 ± 0.3 | 797.4 ± 0.3 | 803.4 ± 0.4 | 814.3 ± 0.4 | 824 ± 0.4 | 832.8 ± 0.5
313.15 K, x1 = 0.6 | 831.4 ± 0.3 | 837.6 ± 0.3 | 843.7 ± 0.3 | 854.5 ± 0.4 | 864.1 ± 0.4 | 872.9 ± 0.4
313.15 K, x1 = 0.7 | 876.3 ± 0.3 | 882.4 ± 1 | 888.3 ± 0.3 | 898.9 ± 0.3 | 908.5 ± 0.3 | 917.2 ± 0.3
313.15 K, x1 = 0.8 | 926.4 ± 0.3 | 932.2 ± 0.3 | 937.9 ± 0.3 | 948.2 ± 0.3 | 957.6 ± 0.3 | 966.1 ± 0.2
313.15 K, x1 = 0.9 | 982.5 ± 0.3 | 988 ± 0.3 | 993.4 ± 0.3 | 1003.2 ± 0.3 | 1012.2 ± 0.3 | 1020.6 ± 0.3
313.15 K, x1 = 0.95 | 1012.1 ± 0.3 | 1017.4 ± 0.3 | 1022.5 ± 0.3 | 1032.1 ± 0.3 | 1041 ± 0.3 | 1049.1 ± 0.3
313.15 K, x1 = 1 | 1043 ± 0.3 | 1048.1 ± 0.3 | 1053 ± 0.3 | 1062.3 ± 0.3 | 1071 ± 0.3 | 1079 ± 0.3
